Results published in patent EP4806899A1, “FUSED RING DERIVATIVE, PREPARATION METHOD THEREFOR AND USE THEREOF IN MEDICINE” (Shanghai Qilu Pharmaceutical Research and Development …, priority 2023, dated 2025).

Experiments:
[1] = Pharmacokinetic determination in mice after gavage administration (P.O.); assay type: in vivo; conditions: male, CD-1, mouse, po, 10 mg/kg, plasma
plasma hormone levels = test: Pharmacodynamic determination in monkeys: plasma aldosterone and cortisol after ACTH stimulation; assay type: in vivo, cynomolgus monkeys; conditions: P.O.
Experimental: Cynomolgus monkeys were used as test animals to evaluate the pharmacodynamics of multiple compounds of the present disclosure on plasma hormone levels following gavage administration (P.O.) at various doses such as 0.1 mpk (and others, e.g., 0.03 mpk, 0.1 mpk, and 0.3 mpk).
Male cynomolgus monkeys, Suzhou Xishan Zhongke Laboratory Animal Co., Ltd. Animal production license number: SCXK (Su) 2023-0001, animal use license number: SYXK (Su) 2020-0017.
Male cynomolgus monkeys were performed gavage administration (P.O.) at doses set as: 0 mpk (vehicle group, i.e., Veh group), 0.03 mpk, 0.1 mpk, and 0.3 mpk. In each group, 15 µg/kg ACTH was injected intramuscularly 1 hour after dosing. Continuous venous blood samples were collected from each group at 1 hour before administration and at multiple time points after administration. Blood samples were collected, and plasma aldosterone and its precursors, as well as plasma corticosterone and its precursors, at multiple time points were analyzed using LC/MS methods.
Venous blood samples were collected at 1-2 hours before gavage administration and at multiple time points after intramuscular injection of ACTH (adrenocorticotropic hormone). The samples were placed in EDTA-K2 tubes, centrifuged at 4 °C, 2600 g for 10 minutes to separate plasma, which was then stored at -80 °C.
• HPLC: Waters ACQUITY UPLC I-Class PLUS; • Mass spectrometry conditions: Triple Quad™ 7500 (Serial No. FA224362212) mass spectrometer; • Chromatographic column: phenomenex kinetex 2.6µm C8 100A 50 × 4.60 mm; • Mobile phase: mobile phase A was 0.5 mM ammonium fluoride solution containing 0.1% formic acid; mobile phase B was MeOH.
The data in Figs. 1, 2, 3, 4, and 5 are analyzed based on PD changes at 30 minutes after ACTH stimulation. The percentage of PD relative to the control group (Veh group) at 30 minutes after ACTH stimulation serves as the main basis for pharmacodynamic evaluation, calculated according to the following formula: [formula] where PD refers to aldosterone or cortisol. Table 8 Pharmacodynamic Evaluation of Example Compound C44 in Monkeys

in vivo = conditions: rat, in vivo, po, 10 mg/kg
Experimental: Mice and rats were used as test animals to study the pharmacokinetic behavior of the compounds of the present disclosure in plasma following gavage administration (P.O.). Plasma samples were collected at specific time points, compound concentrations in plasma were detected by LC-MS/MS, and pharmacokinetic parameters were calculated to evaluate the pharmacokinetics.
• Mice, CD-1, male, Zhejiang Vital River Laboratory Animal Technology Co., Ltd. • Rats, Sprague-Dawley, male, Zhejiang Vital River Laboratory Animal Technology Co., Ltd., Shanghai Jihui Experimental Animal Breeding Co., Ltd.
After administration to mice and rats, venous blood samples of 0.03 mL and 0.2 mL, respectively, were collected at 0.0833 (IV), 0.25, 0.5, 1, 2, 4, 8, and 24 hours and placed in EDTA-K2 test tubes. Plasma was separated by centrifugation at 4 °C, 4000 g for 5 minutes and stored at -80 °C.
• 1) 50 µL of plasma sample was precipitated by adding 200 µL of acetonitrile, vortex mixed, and centrifuged for 15 minutes. • 2) The processed supernatant was diluted with water and analyzed by LC/MS/MS to determine the concentration of the test compound.
Pharmacokinetic parameters were calculated using WinNonlin 8.3. […] Cmax represents the maximum plasma concentration, T1/2 represents the terminal elimination half-life, MRTInf represents the mean residence time, and AUC represents the area under the plasma concentration-time curve.

[2] = 0.03 mpk, 30min after ACTH stimulation, plasma
[3] = 0.1 mpk, 30min after ACTH stimulation, plasma
[4] = 0.3 mpk, 30min after ACTH stimulation, plasma

[2H]C([2H])([2H])OC(=O)N[C@@H]1CCOc2c(-c3cc(F)c4c(ccc(=O)n4C)c3)cncc21 [Compound A50]
Cmax [1]: 9.07 µM
AUC(0-t) ([1]; read-out: AUC0-24): 136 µM·h
Aldosterone (plasma hormone levels; 0.03 mpk, 0h, plasma): 0.12 ng/mL
Cortisol (plasma hormone levels; 0.03 mpk, 0h, plasma): 358.3 ng/mL
Aldosterone (plasma hormone levels; [2]): 0.22 ng/mL
Cortisol (plasma hormone levels; [2]): 430.0 ng/mL
Aldosterone (plasma hormone levels; 0.1 mpk, 0h, plasma): 0.49 ng/mL
Cortisol (plasma hormone levels; 0.1 mpk, 0h, plasma): 282.0 ng/mL
Aldosterone (plasma hormone levels; [3]): 0.12 ng/mL
Cortisol (plasma hormone levels; [3]): 386.0 ng/mL
Aldosterone (plasma hormone levels; 0.3 mpk, 0h, plasma): 0.12 ng/mL
Cortisol (plasma hormone levels; 0.3 mpk, 0h, plasma): 304.7 ng/mL
Aldosterone (plasma hormone levels; [4]): 0.06 ng/mL
Cortisol (plasma hormone levels; [4]): 369.7 ng/mL

CCC(=O)N[C@@H]1CCOc2c(-c3ccc4c(c3)CCC(=O)N4C)cncc21 [Compound A02-P2]
AUC(0-t) at 24 h (in vivo): 190 µM·h
Cmax (in vivo): 22.7 µM
MRT inf (in vivo): 5.3 h
half-life (in vivo): 3.47 h
Cortisol (plasma hormone levels; 0.03 mpk, 0h, plasma): 269.0 ng/mL
Aldosterone (plasma hormone levels; 0.03 mpk, 0h, plasma (Table 12)): 0.13 ng/mL
Cortisol (plasma hormone levels; [2]): 384.0 ng/mL
Aldosterone (plasma hormone levels; 0.03 mpk, 30min after ACTH stimulation, plasma (Table 12)): 0.27 ng/mL
Cortisol (plasma hormone levels; 0.1 mpk, 0h, plasma): 436.0 ng/mL
Aldosterone (plasma hormone levels; 0.1 mpk, 0h, plasma (Table 12)): 0.40 ng/mL
Cortisol (plasma hormone levels; [3]): 599.0 ng/mL
Aldosterone (plasma hormone levels; 0.1 mpk, 30min after ACTH stimulation, plasma (Table 12)): 0.20 ng/mL
Aldosterone (plasma hormone levels; 0.3 mpk (dose printed 03), 0h, plasma (Table 12)): 0.13 ng/mL
Aldosterone (plasma hormone levels; 0.3 mpk (dose printed 03), 30min after ACTH stimulation, plasma (Table 12)): 0.05 ng/mL
Cortisol (plasma hormone levels; 0.3 mpk, 0h, plasma): 283.0 ng/mL
Cortisol (plasma hormone levels; [4]): 387.0 ng/mL
